Laboratory results reported in patent publication US20240286998A1, “F[…], ANALOGUES THEREOF, AND METHODS USING SAME” (Saint Joseph's University, priority 2021, published 2024).
Like-named read-outs stand apart in the source and are kept apart here.

Legend:
5-HT2B = 5-HT2B (Homo sapiens (Human), UniProt P41595); assay: 5-HT2B Gq-mediated calcium flux functional assay; assay type: cell-based
Serotonin 5-HT2A (human) = Serotonin 5-HT2A (human) (Homo sapiens (Human), UniProt P28223); assay: 5-HT2A receptor binding, [3H]-ketanserin competition in membrane fractions; details: 1 nM [3H]-ketanserin, Cheng-Prusoff, N=1-3
C57BL/6J mice [1] = assay: Head-Twitch Response (HTR) in mice; assay type: in vivo; details: Mus musculus, ip, 0.5 h
Procedure: Male C57BL/6J mice (6-8 weeks old) were obtained from Jackson Laboratories (Bar Harbor, ME) and housed in a vivarium at the University of California San Diego, an AAALAC-approved animal facility that meets all federal and state requirements for care and treatment of laboratory animals. All animal experiments were carried out in accordance with NIH guidelines and were approved by the UCSD Institutional Animal Care and Use Committee. Mice were housed up to four per cage in a climate-controlled room on a reverse-light cycle (lights on at 1900 h, off at 0700 h). Animals were provided with ad libitum access to food and water, with the exception of during behavioral testing.
Testing was conducted between 1000 and 1800 h. Head movements were recorded using a head-mounted magnet and a magnetometer coil as described in Halberstadt et al. (Psychopharmacology, 2013, 227(4):727-739). For the head mounted magnet, mice were anesthetized, an incision was made in the scalp, and a neodymium magnet was attached to the dorsal surface of the cranium using dental cement. Following a 2-week recovery period, behavioral experiments were conducted in a well-lit room. At least 7 days occurred between sessions to avoid any carryover effects. Test substances (i.e., dimethyltryptamine (DMT), diethyltryptamine (DET), psilocybin, 6-fluoro-diethyltryptamine (6-F-DET), compounds 3-4, 6, 9, 12-13, 22, 33, 41, 69, 88, 166, and 178) were administered intraperitoneally (IP) at a volume of 5 mL/kg. Mice were treated with vehicle (saline) or 6 doses of the test compound and then placed in a glass cylinder surrounded by a magnetometer coil and tested for 30 min. Coil voltage was filtered (1 kHz lowpass), digitized (20 kHz sampling rate) and saved to disk using a Powerlab/8SP with LabChart v 7.3.2 (ADInstruments, Colorado Springs, CO).
The entire 30 min recordings were examined for head twitches. Established procedures based on artificial intelligence were used to identify head twitches in the recordings (Scientific Reports, 2020, 10(1):1-12). HTR counts were analyzed using one-way analyses of variance (ANOVA), followed by post hoc pairwise comparisons between individual groups and vehicle using Dunnett's multiple comparisons test. […] Median effective doses (ED50 values) and 95% confidence intervals (95% CI) were calculated using nonlinear regression (Prism 9.0.2, GraphPad Software, San Diego, CA) (Table 4 and FIGS. 1-3).

5-HT2C = 5-HT2C (Homo sapiens (Human), UniProt P28335); assay: 5-HT2C Gq-mediated calcium flux functional assay; assay type: cell-based
Sequence of 5-HT2C (P28335 whole entry, looked up): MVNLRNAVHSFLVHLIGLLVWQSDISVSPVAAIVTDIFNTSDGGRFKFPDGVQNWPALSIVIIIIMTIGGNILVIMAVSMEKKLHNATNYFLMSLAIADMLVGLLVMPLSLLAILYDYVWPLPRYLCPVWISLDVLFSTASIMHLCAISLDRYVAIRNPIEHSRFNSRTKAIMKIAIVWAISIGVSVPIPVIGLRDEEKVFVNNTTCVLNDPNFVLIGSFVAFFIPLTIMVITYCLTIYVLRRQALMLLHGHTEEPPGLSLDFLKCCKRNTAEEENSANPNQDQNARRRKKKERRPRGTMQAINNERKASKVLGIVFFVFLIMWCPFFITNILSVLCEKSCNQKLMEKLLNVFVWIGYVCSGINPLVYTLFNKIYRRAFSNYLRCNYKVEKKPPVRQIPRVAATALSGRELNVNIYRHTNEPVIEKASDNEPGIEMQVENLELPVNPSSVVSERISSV

5-HT2A = 5-HT2A (Homo sapiens (Human), UniProt P28223); assay: 5-HT2A Gq-mediated calcium flux functional assay; assay type: cell-based
[2] = Metabolic stability in cryopreserved human hepatocytes; assay type: in vitro ADME; details: cryopreserved hepatocytes, human hepatocytes, 1 μM, 37° C.
Procedure: (§1) The metabolic stability of a test compounds were assessed by monitoring disappearance of each compound in the presence of cryopreserved hepatocytes for up to 1 hour at 37° C. Following protein precipitation and centrifugation, the samples were analyzed by UPLC-MS-MS. Test Compound stock solutions (10 mM) were diluted 1 in 100 (2 μL 10 mM DMSO stock+198 μL 50:50 acetonitrile:water) to provide a 100 μM working solution. Following addition of test compounds to buffer, samples were pre-incubated at 37° C. for 5 minutes prior to initiating the incubation by the addition of test compounds to hepatocytes (these were held at 37° C. during pre-incubation period). Aliquots were sampled at 0, 5, 10, 20, 40 and 60 min and added to ice cold acetonitrile to terminate the reaction and precipitate proteins. All samples were mixed, centrifuged, and the supernatants were analyzed by UPLC-MS-MS using a Phenomenex Luna Omega […], C18 100 Å, 50×2.1 mm column. The final incubation conditions were as follows: hepatocytes 0.5×10^6 viable cells/mL, test compound 1 μM (n=1), acetonitrile concentration<0.01% (v/v) and DMSO concentration<0.01% (v/v). The intrinsic clearance (Clint) and half-life (T1/2) values are determined from the slope of the parent depletion curve. Positive control compounds with known metabolic clearance were included (diltiazem and naloxone).

human hepatocytes = assay: as above; assay type: in vitro ADME; details: qualitative statement
Procedure: as §1

[3] = In vivo intravenous pharmacokinetic study in rats; design: species or system Sprague Dawley rats; details: rat, mean; for Vd: iv, 1 mg/kg
Procedure: For the in vivo stability study described herein, 1 mg/kg of drug was administered by intravenous injection (i.e., dose volume 2 mL/kg, vehicle 5% DMSO:95% hydroxypropyl-beta-cyclodextrin (20% w/v in water)) to three male Sprague Dawley rats (˜300 g at time of dosing). Blood samples (˜240 μL) were collected via venipuncture at various time points (5, 15, 30, 60 120 240, 480 and 1,440 min) into K2EDTA-coated tubes. The samples were spun at 10,000 rpm (9,600×G) for 2 minutes. 100 μL of the resulting plasma was then collected and stored at −80° C. until analyzed by HPLC as described above.
Compound 3 administered intravenously (1 mg/kg); Vehicle: 5% DMSO, 95% 2-hydroxypropyl-β-cyclodextrin (HPBCD) (20% w/v in water); Plasma concentrations were quantified at multiple time points by UHPLC-MS-MS; N=3.

5-HT1A = 5-HT1A (Homo sapiens (Human), UniProt P08908); assay: 5-HT1A Gi/o-mediated cAMP inhibition, GloSensor assay; assay type: cell-based
C57BL/6J mice [4] = details: reported values of known 5HT2A agonists run under comparable conditions; dash = ED50 could not be estimated; cited from earlier work
[5] = male, Sprague Dawley, plasma, intravenous 1 mg/kg, N=3

Sequence of 5-HT2B (P41595 whole entry): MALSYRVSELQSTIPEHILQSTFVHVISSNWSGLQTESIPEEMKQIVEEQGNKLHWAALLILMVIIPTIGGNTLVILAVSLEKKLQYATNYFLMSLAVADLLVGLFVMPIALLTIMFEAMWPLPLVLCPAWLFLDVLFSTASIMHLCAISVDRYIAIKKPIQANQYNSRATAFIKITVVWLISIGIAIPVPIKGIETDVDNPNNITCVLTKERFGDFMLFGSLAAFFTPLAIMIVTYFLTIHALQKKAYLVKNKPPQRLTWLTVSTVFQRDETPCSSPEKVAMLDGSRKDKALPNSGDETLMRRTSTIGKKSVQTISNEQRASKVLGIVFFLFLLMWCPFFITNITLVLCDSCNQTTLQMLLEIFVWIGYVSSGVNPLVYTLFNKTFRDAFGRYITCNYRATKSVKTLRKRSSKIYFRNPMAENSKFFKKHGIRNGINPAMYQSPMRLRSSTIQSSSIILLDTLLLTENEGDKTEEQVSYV

## CCC(C)N(C)CCc1c[nH]c2ccc(F)cc12 (centres unmarked) [Example 3, N-(2-(5-fluoro-1H-indol-3-yl)ethyl)-N-methylbutan-2-amine]
5-HT2B
  EC50: 9.12 nM
5-HT2B; IA = Inactive, N=1-3
  5-HT2B-Ca2+ FLUX Emax (% 5-HT): 37.5 ± 1.5 % 5-HT
Serotonin 5-HT2A (human)
  5-HT2A pKi ± SEM: 6.23 ± 0.30
C57BL/6J mice [1]; read-out: HTR ED50 μmol/kg (95% CI)
  ED50: 6.28 µmol/kg
C57BL/6J mice [1]; read-out: HTR ED50 mg/kg (95% CI)
  ED50: 1.79 mg/kg
5-HT2C
  EC50: 49 nM
5-HT2C; IA = Inactive, N=1-3
  5-HT2C-Ca2+ FLUX Emax (% 5-HT): 56.0 ± 0.9 % 5-HT
5-HT2A
  EC50: 3.72 nM
5-HT2A; IA = Inactive, N=1-3
  5-HT2A-Ca2+ FLUX Emax (% 5-HT): 94.8 ± 0.8 % 5-HT
[2]
  half-life at 1 μM: 0.183 h
[2]; read-out: Clint (μL/min/10^6 cells)
  hepatocyte CLint at 1 μM: 132 µL/min/1e6 cells
Human hepatocytes
  metabolism by human hepatocytes: rapidly metabolized
[3]; [5]
  AUC: 594 ng·h/mL
  AUC(0-inf): 597 ng·h/mL
  C0: 2490 ng/mL
  clearance: 29.5 mL/min/kg
[3]; male, Sprague Dawley, plasma, intravenous 1 mg/kg, N=3, read-out: Half-Life (converted)
  half-life: 1.09 h
[3]; male, Sprague Dawley, plasma, N=3, read-out: Vss
  Vd: 0.999 L/kg
[3]; male, Sprague Dawley, plasma, N=3, read-out: Vz
  Vd: 3.04 L/kg
[3]; intravenous 1 mg/kg, N=3
  AUC % Extrapolation to C0: 27.7%
  AUC % Extrapolation to Inf: 0.570%
  half-life: 1.09 h
5-HT1A
  EC50: 3890 nM
5-HT1A; cAMP inhibition, 0.2 μM isoproterenol, IA = Inactive
  5-HT1A-cAMP Emax (% 5-HT): 83.3 ± 5.7 % 5-HT

## CN(C)CCc1c[nH]c2cccc(OP(=O)(O)O)c12 [Psilocybin]
C57BL/6J mice [4]
  HTR ED50 μmol/kg (95% CI): 1.40 µmol/kg
  HTR ED50 mg/kg (95% CI): 0.38 mg/kg
